Patent US6054441A, “Oxypurine nucleosides and their congeners, and acyl derivatives thereof, for improvement of hematopoiesis” (priority 1995, dated 2000)

What was measured:
[1] = system: hematopoiesis in normal mice; test: Hematopoiesis in normal mice (Example 44); type: in vivo, Balb/C mice
Experimental: Normal, otherwise untreated, female Balb/C mice weighing approximately 20 grams each received a total of 4 or 9 0.4 ml intraperitoneal injections (one per day) of either Tween-80 (0.2%) (controls), palmitoylguanosine (2.5 μmoles/mouse/day), or palmitoyldeoxyinosine (2.5 μmoles/mouse/day). Twenty-four hours after the 4th or 9th treatment, groups of 5 or 6 animals from each of the 3 groups were bled and then sacrificed by cervical dislocation. Spleens were removed and weighed, and complete blood cell counts performed.

[2] = system: hematopoietic recovery after cyclophosphamide; test: Hematopoietic recovery after cyclophosphamide (Example 48); type: in vivo, Balb/C mice
Experimental: Cyclophosphamide (CP) (275 mg/kg, i.p.) was administered to 36 Balb/C female mice weighing approximately 20 grams each. Twenty four hours later and each day thereafter for a total of 4 or 6 days, mice were given a 0.4 ml i.p. injection of either physiological saline (controls), palmitoyldeoxyinosine (2.5 μmoles/mouse), or palmitoylxanthosine (2.5 μmoles/mouse). On days 5 and 7 following CP administration 6 of the 12 animals in each of the 3 groups were bled and then sacrificed by cervical dislocation. Spleens were removed and weighed, and complete blood cell counts performed.

[3] = system: hematopoietic recovery after cyclophosphamide; test: Hematopoietic recovery after cyclophosphamide (Example 50); type: in vivo, Balb/C mice; conditions: 2 μmoles/mouse
Experimental: Cyclophosphamide (CP) (275 mg/kg, i.p.) was administered to 96 Balb/C female mice weighing approximately 20 grams each. Twenty-four hours later and each day thereafter mice were given a 0.4 ml i.p. injection of either Tween-80 (0.2%) (controls), palmitoyldeoxyguanosine (2 μmoles/mouse), palmitoyldeoxyinosine (2 μmoles/mouse), palmitoylacyclovir (2 μmoles/mouse), palmitoylarabinosylguanine (2 μmoles/mouse), palmitoylarabinosylhypoxanthine (2 μmoles/mouse), monopalmitoylguanosine 2',3'-acyclic dialcohol (2 μmoles/mouse), and palmitoyl-8-thioguanosine (2 μmoles/mouse). On days 5 and 7 following CP administration 6 animals in each of the 8 groups were bled and then sacrificed by cervical dislocation. Spleens were removed and weighed, and complete blood cell counts performed.

[4] = system: human myeloid leukemia cell line (HL-60); conditions: cited from earlier work; for conversion of immature blast cells into mature granulocytes: HL-60 in vitro
[5] = system: blood cell counts after cyclophosphamide; test: Hematopoietic recovery after cyclophosphamide (Example 62); type: in vivo, Balb/C mice; conditions: for Spleen: 25 mg/kg TriPdG or molar equivalent
Experimental: Thirty-six female Balb/C mice weighing approximately 20 grams each received a 0.4 ml i.p. injection of either 3',5'-O-N^2 -tripalmitoyl-2'-deoxyguanosine (triPdG) at a dose of 25 mg/kg/treatment or 3',5'-O-dipalmitoyl-2'-deoxyguanosine (diPdG) at a dose that was the molar equivalent of 25 mg/kg tripalmitoylgdeoxyguanosine, in a Tween-DMSO vehicle (0.2% Tween-80 and 7.5% DMSO in saline) or vehicle alone one time daily for five days following a single injection of cyclophosphamide (CP) (250 mg/kg, i.p.). On days 5 and 7 following CP administration six animals from each of these three groups were bled and then sacrificed by cervical dislocation. Six untreated mice were also bled and sacrificed to provide data on normal. (basal) values. Spleens were removed and weighed, and complete blood cell counts performed.

[6] = system: blood cell counts after cyclophosphamide; test: Hematopoietic recovery after cyclophosphamide (Example 63); type: in vivo, Balb-C mice; conditions: for Spleen: 25 mg/kg TriPdG or molar equivalent
Experimental: Fifty-eight female Balb-C mice weighing approximately 20 grams each received a single injection of cyclophosphamide (250 mg/kg, i.p.), and were then distributed into a vehicle control group (0.2% Tween-80+7.5% DMSO in saline; n=12) or one of five treatment groups:
Vehicle or treatment agents were administered to mice once daily for five days at a volume of 0.4 ml by i.p. injection. TriPdG was given at a dose of 25 mg/kg/treatment. The other four agents were given in doses that are the molar equivalent of 25 mg/kg/treatment of TriPdG. On days 5 and 7 following CP administration half of the animals from each of the six groups were bled and then sacrificed by cervical dislocation. Five untreated mice were also bled and sacrificed to provide data on normal (basal) values. Spleens were removed and weighed, and complete blood cell counts performed.

[7] = system: blood cell counts after 5-fluorouracil; test: Pretreatment dose response, recovery after 5-fluorouracil (Example 65); type: in vivo, Balb/C mice
Experimental: Sixty female Balb/C mice weighing approximately 20 grams each were distributed into one of five treatment groups and treated once daily for three days by i.p. injection with 3',5'-O-N^2 -tripalmitoyl-2'-deoxyguanosine at a dose of either 1, 5, 10, 25, or 50 mg/kg/treatment in a Tween-DMSO vehicle (0.2% Tween-80 and 7.5% DMSO in physiological saline). Injection volume was 0.4 ml. An additional twelve animals (controls) received vehicle alone on those three days. On the fourth day all seventy-two animals received a single i.p. injection of 5-fluorouracil (5-FU) at a dose of 150 mg/kg. On days 7 and 10 following 5-FU administration six mice from each group were bled and then sacrificed by cervical dislocation. Six untreated mice were also bled and sacrificed to provide data on normal (basal) values. Spleens were removed and weighed, and complete blood cell counts performed.

[8] = system: bone marrow cells; test: Proliferation of bone marrow cells in long-term culture (Example 68); type: cell-based, B6D2F1 mice; conditions: 10 micrograms per ml
Experimental: Bone marrow cells from the femurs of B6D2F1 mice were used to establish long-term marrow cultures. After four weeks, when the stromal layer was confluent, the culture was treated with microphenolic acid in order to remove all cells from the stroma. New normal bone marrow cells (1×10^5 /ml) from the same source were then used to "recharge" the stromal layer. Palmitoyldeoxyguanosine was added to half of the cultures at a concentration of 10 micrograms per ml. Cells were counted on days 1, 3, 5, and 7 following addition of palmitoyldeoxyguanosine. On days 4 and 7 cells from the culture were removed, washed, and replated in methylcellulose. The number of granulo-monocytic colonies was counted one week later.

[9] = system: FDCPmix cells; test: Proliferation of FDCPmix cells, MTT assay (Example 69); type: cell-based
Experimental: The FDCPmix cell line was used as a suitable in vitro model for predicting the effects of hematopoietic factors on pluripotential stem cells. These cells can be maintained in an-undifferentiated state in the presence of IL-3 or undergo multi-lineage development in the presence of specific hematopoietic growth factors.
This level of proliferation (100%) served as the control value. Inhibition of proliferation by test compounds was represented as a percent of control.
FDCPmix cells were plated at a density of 5×10^4 cells per well in 96-well plates (5×10^5 /ml) using IMDM medium plus 10% fetal bovine serum. […] Test compounds were added at a decreasing concentrations ranging from 10 micrograms/ml down to 1 nanogram/ml. The test compounds included: 3',5'-O-N^2 -tripalmitoyl-2'-deoxyguanosine, 3',5'-di-O-palmitoyl-2'-deoxyguanosine, 3',5'-O-N^2 -trioctanoyl-2'-deoxyguanosine, 3',5'-di-O-octanoyl-2'-deoxyguanosine, and 3',5'-O-N^2 -trioleyl-2'-deoxyguanosine.

[10] = system: hematopoiesis in normal mice; test: Hematopoiesis in normal mice (Example 56); type: in vivo, Balb/C mice; conditions: day 5, 2.6 μmoles/mouse, 4 days
Experimental: Normal Balb/C female mice weighing approximately 20 grams each were given a daily 0.4 ml i.p. injection of either physiological saline (controls), palmitoylguanosine (2.6 μmoles/mouse), palmitoyldeoxyguanosine (2.6 μmoles/mouse), monopalmitoylguanosine 2',3'-acyclic dialcohol (2.6 μmoles/mouse), and palmitoyl-8-bromoguanosine (2.6 μmoles/mouse) for 4 days. On the fifth day all 3 animals in each of the 5 groups were bled and then sacrificed by cervical dislocation. Spleens were removed and weighed, and complete blood cell counts performed. Femoral bone marrow from each mouse was collected and a differential cell count performed on marrow smears.

[11] = 48 h, read-out: Cell proliferation

## CCCCCCCCCCCCCCCC(=O)OC[C@H]1O[C@@H](n2cnc3c(=O)[nH]cnc32)C[C@@H]1O
[1]; day 5, 2.5 μmoles/mouse/day i.p.
  spleen weight: significantly greater
[1]; day 10, vs Tween 80
  neutrophil counts: significantly greater
  spleen weight: significantly greater
  total leukocyte counts: significantly greater
[2]; day 5, 2.5 μmoles/mouse, vs controls
  spleen weight: significantly elevated
[2]; day 5, vs controls
  neutrophil counts: significantly elevated
  total leukocyte counts: significantly elevated
[2]; day 5, vs palmitoylxanthosine
  neutrophil counts: significantly elevated
  total leukocyte counts: significantly elevated
[2]; day 7, vs controls
  Neutrophils: significantly increased
  spleen weight: significantly increased
  total leukocytes: significantly increased
[3]; day 5
  spleen weight: significantly elevated

## palmitoylarabinosylguanine
[3]; day 7
  spleen weight: significantly elevated on day 7 in all treatment groups except palmitoylarabinosylguanine

## CCCCCCCCCCCCCCCC(=O)OCCOCn1cnc2c(=O)[nH]c(N)nc21 [1-O-palmitoylacyclovir, palmitoylacyclovir]
[3]; day 5
  white blood cell count: significantly elevated compared to controls in all but one treatment group (1-O-palmitoylacyclovir)

## CC1=C(/C=C/C(C)=C/C=C/C(C)=C/C(=O)O)C(C)(C)CCC1 [retinoic acid, reference compound]
[4]
  conversion of immature blast cells into mature granulocytes: induced

## CCCCCCCCCCCCCCCC(=O)Nc1nc2c(ncn2[C@H]2C[C@H](OC(=O)CCCCCCCCCCCCCCC)[C@@H](COC(=O)CCCCCCCCCCCCCCC)O2)c(=O)[nH]1 [TriPdG, 3',5'-O-N^2-tripalmitoyl-2'-deoxyguanosine]
[5]; 5 days after CP
  Neutrophils: 2.5 ± .3 K/μl
  WBC: 4.1 ± .4 K/μl
  Spleen: 77 ± 7 mg
[5]; 7 days after CP
  Neutrophils: 9.9 ± .9 K/μl
  Platelets: 549 ± 25 K/μl
  WBC: 13.4 ± .4 K/μl
  Spleen: 156 ± 12 mg
[6]; 5 days after CP
  Neutrophils: 0.6 ± .1 K/μl
  Platelets: 330 ± 19 K/μl
  WBC: 3.6 ± .4 K/μl
  Spleen: 73 ± 3 mg
[6]; 7 days after CP
  Neutrophils: 7.3 ± .3 K/μl
  Platelets: 674 ± 37 K/μl
  WBC: 3.6 ± .4 K/μl
  Spleen: 198 ± 23 mg
[7]; 7 days after 5-FU, 1 mg/kg
  Platelets: 457 ± 36 K/μl
  Spleen: 74 ± 3 mg
[7]; 7 days after 5-FU, 5 mg/kg
  Platelets: 682 ± 66 K/μl
  Spleen: 78 ± 4 mg
[7]; 7 days after 5-FU, 10 mg/kg
  Platelets: 571 ± 41 K/μl
  Spleen: 83 ± 6 mg
[7]; 7 days after 5-FU, 25 mg/kg
  Platelets: 587 ± 19 K/μl
  Spleen: 93 ± 5 mg
[7]; 7 days after 5-FU, 50 mg/kg
  Platelets: 596 ± 43 K/μl
  Spleen: 102 ± 4 mg
[7]; 10 days after 5-FU, 1 mg/kg
  Lymphocytes: 5.7 ± .2 K/μl
  Neutrophils: 0.4 ± .2 K/μl
  Spleen: 96 ± 13 mg
  WBC: 6.2 ± .4 K/μl
[7]; 10 days after 5-FU, 5 mg/kg
  Lymphocytes: 6.3 ± .7 K/μl
  Neutrophils: 1.6 ± .4 K/μl
  Spleen: 157 ± 13 mg
  WBC: 8.2 ± .9 K/μl
[7]; 10 days after 5-FU, 10 mg/kg
  Lymphocytes: 5.7 ± .4 K/μl
  Neutrophils: 1.8 ± .4 K/μl
  Spleen: 169 ± 24 mg
  WBC: 7.7 ± .6 K/μl
[7]; 10 days after 5-FU, 25 mg/kg
  Lymphocytes: 8.3 ± .4 K/μl
  Neutrophils: 2.9 ± .4 K/μl
  Spleen: 293 ± 17 mg
  WBC: 11.4 ± .6 K/μl
[7]; 10 days after 5-FU, 50 mg/kg
  Lymphocytes: 8.3 ± 1.0 K/μl
  Neutrophils: 2.2 ± .5 K/μl
  Spleen: 320 ± 39 mg
  WBC: 10.8 ± 1.6 K/μl
[8]; day 1
  Cells: 1.9 ± .13 10^6 /flask
[8]; day 3
  Cells: 2.9 ± .10 10^6 /flask
[8]; day 4
  granulocyte/macrophage colony-forming units: 5123 ± 561 CFU-GM/flask
[8]; day 5
  Cells: 7.7 ± .2 10^6 /flask
[8]; day 7
  Cells: 4.3 ± .15 10^6 /flask
  granulocyte/macrophage colony-forming units: 33903 ± 9457 CFU-GM/flask
[9]; 10 micrograms/ml down
  inhibition of proliferation: significant dose-dependent inhibitory effects at doses from 10 micrograms per ml down to 100 nanograms per ml
[9]; [11]
  activity at 0.01 µg/mL: 78 ± 1%
  activity at 0.039 µg/mL: 76 ± 2%
  activity at 0.156 µg/mL: 72 ± 3%
  activity at 0.625 µg/mL: 60 ± 2%
  activity at 2.5 µg/mL: 51 ± 0.7%
  activity at 10 µg/mL: 51 ± 0.6%

## OC[C@H]1O[C@@H](n2cnc3c(O)ncnc32)[C@H](O)[C@@H]1O [inosine]
[4]; HL-60 with inducing agents
  effect on induced maturation of HL-60 cells: no effect on induced maturation

## Palmitoylguanosine 2,3'-acyclic dialcohol
[3]; day 5
  spleen weight: significantly elevated
[10]
  platelet counts: significantly elevated in the all of the treatment groups except palmitoylguanosine 2',3'-acyclic dialcohol
  spleen weight: significantly elevated
[10]; femoral bone marrow
  number of myelocytes: significantly greater

## palmitoylarabinosylhypoxanthine
[3]; day 7
  spleen weight: significantly elevated on day 7 in all treatment groups except palmitoylarabinosylguanine and palmitoylarabinosylhypoxanthine

## CN(C)C=O [dimethylformamide, reference compound]
[4]
  conversion of immature blast cells into mature granulocytes: induced
